According to patent US4468511A, “C-20- And C-23-Modified macrolide derivatives” (Eli Lilly and Company, priority 1983, dated 1984):
Values after ≈ are worked out from the molar mass of the structure shown. Where two headings read alike, the source gives them in different places.

Legend:
Assay type in all cases: cell-based
[1] = test system: Haemophilus influenzae C.L.; assay: MIC, standard agar-dilution assay
Description: (§1) The MIC's in Table II were determined by standard agar-dilution assays. The MIC's in Table III were obtained using a conventional broth-dilution microtiter test.

[2] = test system: Haemophilus influenzae 76; assay: MIC, standard agar-dilution assay
Description: as §1

[3] = test system: Staphylococcus aureus X400; assay: MIC, standard agar-dilution assay; conditions: Staphylococcus aureus, X400
Description: as §1

[4] = test system: Staphylococcus epidermidis EPI2; assay: MIC, standard agar-dilution assay
Description: as §1

[5] = test system: Staphylococcus epidermidis EPI1; assay: microbe, parasite or virus in culture
Description: as §1

[6] = test system: Staphylococcus aureus S13E; assay: microbe, parasite or virus in culture
Description: as §1

[7] = test system: Staphylococcus aureus X1.1; assay: MIC, standard agar-dilution assay
Description: (§2) Certain of the derivatives are active against some gram-negative bacteria, such as Pasteurella species. The MIC's in Table II were determined by standard agar-dilution assays. The MIC's in Table III were obtained using a conventional broth-dilution microtiter test.

[8] = test system: Klebsiella pneumoniae KAE; assay: MIC, standard agar-dilution assay; conditions: agar-dilution; Klebsiella pneumoniae KAE; read-out: MIC
Description: as §2

[9] = test system: Streptococcus pyogenes 9960; assay: MIC, standard agar-dilution assay
Description: as §2

[10] = test system: Staphylococcus aureus V41; assay: MIC, standard agar-dilution assay; conditions: Staphylococcus aureus, V41
Description: as §2

[11] = test system: Streptococcus pneumoniae Park I; assay: MIC, standard agar-dilution assay
Description: as §2

[12] = test system: Klebsiella pneumoniae X26; assay: MIC, standard agar-dilution assay
Description: as §2

Escherichia coli EC14 = assay: MIC, standard agar-dilution assay; conditions: agar-dilution; Escherichia coli EC14; read-out: MIC
Description: as §2

[13] = test system: Streptococcus Group D X66; assay: MIC, standard agar-dilution assay
Description: as §2

Escherichia coli TEM = assay: MIC, standard agar-dilution assay
Description: as §2

[14] = test system: Pasteurella hemolytica 41D; assay: MIC, conventional broth-dilution microtiter test; conditions: broth-dilution microtiter; Pasteurella hemolytica 41D; read-out: MIC
Description: as §2

[15] = test system: Pasteurella multocida 17E; assay: MIC, conventional broth-dilution microtiter test; conditions: broth-dilution microtiter; Pasteurella multocida 17E, Bovine isolate; read-out: MIC
Description: as §2

[16] = test system: Pasteurella hemolytica 22C; assay: MIC, conventional broth-dilution microtiter test; conditions: broth-dilution microtiter; Pasteurella hemolytica 22C; read-out: MIC
Description: as §2

[17] = test system: Pasteurella multocida 60A; assay: MIC, conventional broth-dilution microtiter test; conditions: broth-dilution microtiter; Pasteurella multocida 60A, Avian isolate; read-out: MIC
Description: as §2

[18] = test system: Pasteurella multocida 40G; assay: MIC, conventional broth-dilution microtiter test; conditions: broth-dilution microtiter; Pasteurella multocida 40G; read-out: MIC
Description: as §2

[19] = test system: Mycoplasma gallisepticum 34159; assay: MIC, conventional broth-dilution microtiter test; conditions: Mycoplasmoides gallisepticum; broth-dilution microtiter; Mycoplasma gallisepticum 34159, Resistant strain; read-out: MIC
Description: as §2

[20] = test system: Pasteurella multocida 68C; assay: MIC, conventional broth-dilution microtiter test; conditions: broth-dilution microtiter; Pasteurella multocida 68C; read-out: MIC
Description: as §2

[21] = test system: Mycoplasma gallisepticum 41313; assay: MIC, conventional broth-dilution microtiter test; conditions: Mycoplasmoides gallisepticum; broth-dilution microtiter; Mycoplasma gallisepticum 41313, Resistant strain; read-out: MIC
Description: as §2

Mycoplasma gallisepticum = assay: MIC, conventional broth-dilution microtiter test; conditions: Mycoplasmoides gallisepticum
Description: as §2

Streptococcus sp. 80 = assay: MIC, conventional broth-dilution microtiter test; conditions: broth-dilution microtiter; Streptococcus sp. 80; read-out: MIC
Description: as §2

Mycoplasma hyorhinis = assay: MIC, conventional broth-dilution microtiter test; conditions: broth-dilution microtiter; Mycoplasma hyorhinis; read-out: MIC
Description: as §2

Staphylococcus aureus = assay: MIC, conventional broth-dilution microtiter test; conditions: broth-dilution microtiter, read-out: MIC
Description: as §2

[22] = test system: Pasteurella hemolytica 23C; assay: MIC, conventional broth-dilution microtiter test; conditions: broth-dilution microtiter; Pasteurella hemolytica 23C; read-out: MIC
Description: as §2

[23] = test system: Pasteurella multocida 22A; assay: MIC, conventional broth-dilution microtiter test; conditions: broth-dilution microtiter; Pasteurella multocida 22A; read-out: MIC
Description: as §2

[24] = test system: Streptococcus pyogenes C203; assay: MIC, standard agar-dilution assay; conditions: agar-dilution; Streptococcus pyogenes C203; read-out: MIC
Description: as §2

[25] = agar-dilution, Staphylococcus epidermidis EPI2, read-out: MIC
[26] = Staphylococcus epidermidis, EPI1
[27] = agar-dilution, Streptococcus pneumoniae Park I, read-out: MIC
[28] = agar-dilution, Klebsiella pneumoniae X26, read-out: MIC
[29] = agar-dilution, Streptococcus 9960, read-out: MIC
[30] = agar-dilution, Streptococcus Group D X66, read-out: MIC
[31] = agar-dilution, Escherichia coli TEM, read-out: MIC

Structure (SMILES)	MIC ([1]; Haemophilus influenzae)	MIC ([2]; Haemophilus influenzae, 76)	MIC [3]	MIC [6]	MIC [8]	MIC [10]	MIC (Escherichia coli EC14)	MIC [14]	MIC [15]	MIC [16]	MIC [17]	MIC [18]	MIC [19]	MIC [20]	MIC [21]	MIC (Streptococcus sp. 80)	MIC (Mycoplasma hyorhinis)	MIC (Staphylococcus aureus)	MIC [22]	MIC [23]	further results
CCC1OC(=O)CC(O)C(C)C(OC2OC(C)C(O)C(N(C)C)C2O)C(CCN2C(=O)c3ccccc3C2=O)CC(C)C(=O)C=CC(C)=CC1CO (stereo not shown) [Compound 6, 20-N-Phthalimido-20-deoxy-20-dihydro-OMT]	64 mg/L (≈ 87.8 µM)	64 mg/L (≈ 87.8 µM)	16 mg/L (≈ 22 µM)	8 mg/L (≈ 11 µM)	> 128 mg/L	8 mg/L (≈ 11 µM)	> 128 mg/L	50 mg/L (≈ 68.6 µM)	50 mg/L (≈ 68.6 µM)	50 mg/L (≈ 68.6 µM)	50 mg/L (≈ 68.6 µM)	50 mg/L (≈ 68.6 µM)	50 mg/L (≈ 68.6 µM)	25 mg/L (≈ 34.3 µM)	50 mg/L (≈ 68.6 µM)	3.12 mg/L (≈ 4.28 µM)	50 mg/L (≈ 68.6 µM)	25 mg/L (≈ 34.3 µM)	50 mg/L (≈ 68.6 µM)	50 mg/L (≈ 68.6 µM)	MIC [4, 25]: 2 mg/L (≈ 2.74 µM); MIC [5, 26]: 4 mg/L (≈ 5.49 µM); MIC ([7]; agar-dilution, Staphylococcus aureus X1.1, read-out: MIC): 4 mg/L (≈ 5.49 µM); MIC [9]; 9960: 16 mg/L (≈ 22 µM); MIC [11, 27]: 2 mg/L (≈ 2.74 µM); MIC [12, 28]: 16 mg/L (≈ 22 µM); MIC [13]: 16 mg/L (≈ 22 µM); MIC (Escherichia coli TEM; Escherichia coli): 64 mg/L (≈ 87.8 µM); MIC (Mycoplasma gallisepticum; broth-dilution microtiter, Mycoplasma gallisepticum, read-out: MIC): 3.12 mg/L (≈ 4.28 µM)
CCC1OC(=O)CC(O)C(C)C(OC2OC(C)C(OC3CC(C)(O)C(O)C(C)O3)C(N(C)C)C2O)C(CCN2C(=O)c3ccccc3C2=O)CC(C)C(=O)C=CC(C)=CC1CO (stereo not shown) [Compound 17, 20-N-Phthalimido-20-deoxy-20-dihydro-DMT]	–	–	64 mg/L (≈ 73.3 µM)	64 mg/L (≈ 73.3 µM)	> 128 mg/L	64 mg/L (≈ 73.3 µM)	> 128 mg/L	> 50 mg/L	> 50 mg/L	> 50 mg/L	> 50 mg/L	> 50 mg/L	50 mg/L (≈ 57.3 µM)	> 50 mg/L	50 mg/L (≈ 57.3 µM)	50 mg/L (≈ 57.3 µM)	50 mg/L (≈ 57.3 µM)	> 50 mg/L	> 50 mg/L	> 50 mg/L	MIC ([1]; agar-dilution, Haemophilus influenzae C.L., Ampicillin-sensitive strain, read-out: MIC): > 128 mg/L; MIC ([2]; agar-dilution, Haemophilus influenzae 76, Ampicillin-resistant strain, read-out: MIC): > 128 mg/L; MIC [4, 25]: 32 mg/L (≈ 36.7 µM); MIC ([5]; agar-dilution, Staphylococcus epidermidis EPI1, read-out: MIC): 32 mg/L (≈ 36.7 µM); MIC ([7]; Staphylococcus aureus, X1.1): 64 mg/L (≈ 73.3 µM); MIC [9, 29]: > 128 mg/L; MIC [11, 27]: 16 mg/L (≈ 18.3 µM); MIC [12, 28]: > 128 mg/L; MIC [13, 30]: > 128 mg/L; MIC (Escherichia coli TEM; [31]): > 128 mg/L; MIC [24]: 128 mg/L (≈ 147 µM); MIC (Mycoplasma gallisepticum): 12.5 mg/L (≈ 14.3 µM)
CCC1OC(=O)CC(O)C(C)C(OC2OC(C)C(O)C(N(C)C)C2O)C(CCN2C(=O)c3ccccc3C2=O)CC(C)C(=O)C=CC(C)=CC1C (stereo not shown) [Compound 22, 20-N-Phthalimido-20-deoxy-20-dihydro-DOMT]	128 mg/L (≈ 180 µM)	128 mg/L (≈ 180 µM)	32 mg/L (≈ 44.9 µM)	8 mg/L (≈ 11.2 µM)	> 128 mg/L	8 mg/L (≈ 11.2 µM)	> 128 mg/L	50 mg/L (≈ 70.1 µM)	50 mg/L (≈ 70.1 µM)	50 mg/L (≈ 70.1 µM)	50 mg/L (≈ 70.1 µM)	50 mg/L (≈ 70.1 µM)	50 mg/L (≈ 70.1 µM)	25 mg/L (≈ 35.1 µM)	50 mg/L (≈ 70.1 µM)	6.25 mg/L (≈ 8.77 µM)	25 mg/L (≈ 35.1 µM)	25 mg/L (≈ 35.1 µM)	50 mg/L (≈ 70.1 µM)	50 mg/L (≈ 70.1 µM)	MIC ([4]; Staphylococcus epidermidis, EPI2): 4 mg/L (≈ 5.61 µM); MIC [5, 26]: 8 mg/L (≈ 11.2 µM); MIC ([7]; Staphylococcus aureus, X1.1): 8 mg/L (≈ 11.2 µM); MIC [9, 29]: 16 mg/L (≈ 22.4 µM); MIC ([11]; Streptococcus pneumoniae): 4 mg/L (≈ 5.61 µM); MIC ([12]; Klebsiella pneumoniae, X26): 32 mg/L (≈ 44.9 µM); MIC [13, 30]: 16 mg/L (≈ 22.4 µM); MIC (Escherichia coli TEM; [31]): 128 mg/L (≈ 180 µM); MIC (Mycoplasma gallisepticum): 0.78 mg/L (≈ 1.09 µM)
